Our source for the melting point values is the Bradley open melting point set (2014).

Molecules are shown by their SMILES. Values joined by “and” are separate entries in the source; they are usually repeats but may differ in a detail not shown here. Equal values may be shown once.

Broadly, the melting point is the temperature of the solid-liquid transition. In turn, `CCOc1ccc(NC(=O)CN)cc1` [Phenokoll] showed a melting point of 101 °C.

As for `O=C(O)c1ccccc1/N=N/c1ccc(O)cc1` [2-(4-hydroxyphenyl-azo)benzoic acid], the melting point is 206 °C.

The compound `O=[N+]([O-])c1ccc(Cl)cc1` [1-Chloro-4-nitrobenzene] came in with a melting point of 83.6 °C.

For the compound `O=Cc1ccc(Br)cc1` [p-bromobenzaldehyde], the melting point is 57 °C.

In the case of `COc1c(F)cc(F)cc1B(O)O` [3,5-difluoro-2-methoxybenzeneboronic acid], the melting point was found to be 114 °C.

Consider `Cc1cc2nsnc2cc1C` [5,6-dimethyl-2,1,3-benzothiadiazole], for which the melting point was 84 °C.

Compound `CCOc1ccc(Br)cc1` [4-bromophenetole] yielded a melting point of 4 °C.

The compound `ClC(Cl)Cl` [trichloromethane] registered a melting point of -63 °C.

For the compound `Oc1ccc2ccccc2c1-c1c(O)ccc2ccccc12` [1,1'-bi(2-naphthol)], the melting point worked out at 217 °C.

For the compound `Cc1cccc(C(=O)CC#N)c1` [m-toluoylacetonitrile], the melting point worked out at 73 °C.

The compound `CCc1ccc(OCC(=O)O)cc1` [4-ethylphenoxyacetic acid] came in with a melting point of 93 °C.

`CCOC(=O)c1ccc(N)cc1` [ethyl_4-aminobenzoate] gave a melting point of 89 °C.

Compound `Clc1nc[nH]c1Cl` [4,5-dichloroimidazole] came in with a melting point of 181 °C.

In the case of `COc1ccc2nc(N)sc2c1` [6-Methoxy-1,3-benzothiazol-2-amine], the melting point is 166 °C.

`CN1CCC(=C2c3ccccc3C=Cc3ccccc32)CC1` [cyproheptadine]: the melting point was 113 °C.

As to `Clc1cc(Cl)c(-c2ccccc2)cc1Cl` [2,4,5-Trichlorobiphenyl], the melting point amounted to 78 °C.

With `OB(O)c1ccc2[nH]ccc2c1` [indole-5-boronic acid], the melting point is 173 °C.

In turn, `CC(=O)c1ccc(C#N)cc1` [p-acetyl_benzonitrile] registered a melting point of 59 °C.

On to `CCCNC(N)=O` [N-propylurea], for which the melting point was 102 °C.

Turning to `[2H]C([2H])([2H])C(=O)C([2H])([2H])[2H]` [(~2~H_6_)Propan-2-one], the melting point was -93 °C.

The compound `O=C(O)CNC(=O)c1ccccc1` [hippuric acid] registered a melting point of 190 °C.

`COC(=O)c1ccc(OC)c(C#N)c1` [methyl 3-cyano-4-methoxybenzoate] returned a melting point of 122 °C.

Consider `Cc1nnc2n1-c1ccc(Cl)cc1C(c1ccccc1Cl)=NC2` [triazolam], for which the melting point was found to be 234 °C.

With `Cc1c[nH]c(=O)[nH]c1=O` [thymine], the melting point came out at 316 °C.

Take `CCCCCCCC(=O)OCC` [ethyl octanoate]: the melting point was -47 °C.

In turn, `N#Cc1cc(I)c(O)c(I)c1` [3,5-diiodo-4-hydroxybenzonitrile] displayed a melting point of 204 °C.

`CCCCNc1cc(C(=O)O)cc(S(N)(=O)=O)c1Oc1ccccc1` [bumetanide] registered a melting point of 230 °C.

Take `CCOC(=O)c1ccc(C(C)=O)cc1` [ethyl_p-acetylbenzoate]: the melting point came out at 55 °C.

Consider `Oc1c(F)ccc(F)c1F` [2,3,6-trifluorophenol], for which the melting point was determined as 34 °C.

On to `O=C(NC1CCN(CCc2c[nH]c3ccccc23)CC1)c1ccccc1` [indoramin], for which the melting point was found to be 208 °C.

The compound `C[C@]12CCC(=O)C=C1CC[C@@H]1[C@@H]2[C@@H](O)C[C@@]2(C)[C@H]1CC[C@]2(O)C(=O)CO` [Hydrocortisone] registered a melting point of 220 °C.

For the compound `Cc1ccc(N)cc1Br` [3-bromo-4-methylaniline], the melting point came to 27 °C.

Compound `COc1ccc2c(c1)[C@@]13CCCC[C@@H]1[C@@H](C2)N(C)CC3` [dextromorphan] registered a melting point of 110 °C.

Consider `C[C@H](Cc1ccc(O)c(O)c1)[C@@H](C)Cc1ccc(O)c(O)c1` [nordihydroguaiaretic acid], for which the melting point worked out at 186 °C.

On to `O=S1(=O)OC(c2cc(Br)c(O)c(Br)c2)(c2cc(Br)c(O)c(Br)c2)c2ccccc21`, for which the melting point is 204 °C.

In turn, `O=C(O)/C=C/c1ccccc1` [trans-cinnamic_acid] displayed a melting point of 133 °C.

Regarding `COC(C)(C)C` [tert-butyl methyl ether], the melting point was -109 °C.

As for `OC[C@H]1O[C@H](O)[C@H](O)[C@@H](O)[C@@H]1O` [glucose], the melting point is 150 °C and 146 °C (3×) and 147 °C.

On to `CCCCCCCCCCNCCCCCCCCCC` [N-Decyldecan-1-amine], for which the melting point was determined as 43 °C.

As to `CCc1cc2cc(OC)c(OC)cc2c(Cc2ccccc2)n1` [moxaverine], the melting point was 78 °C.

`Cc1noc(NS(=O)(=O)c2ccc(N)cc2)c1C` [Sulfisoxazole] displayed a melting point of 194 °C.

`ClCCCl` [1,2-dichloroethane] returned a melting point of -35 °C.

In the case of `Cn1cnc2c1c(=O)[nH]c(=O)n2C` [theobromine], the melting point came to 348 °C.

In the case of `OB(O)c1ccc(-c2ccccc2)c(F)c1` [2-fluorobiphenyl-4-boronic acid], the melting point amounted to 246 °C.

Compound `O=C(Cl)c1ccco1` [2-furoyl chloride] yielded a melting point of -1 °C.

For the compound `CC(=O)C(=O)O` [2-Oxopropanoic acid], the melting point is 12 °C.

For the compound `c1ccc(OP(Oc2ccccc2)Oc2ccccc2)cc1` [triphenyl phosphite], the melting point was 23 °C.

`CC(=O)C(=O)O` [pyruvic acid]: the melting point was 11.5 °C (2×) and 12 °C (2×) and 13.8 °C.

`C1CCC(C2CCCCC2)CC1` [bicyclohexyl] displayed a melting point of 4 °C.

As to `O=C(O)CCCc1ccccc1` [4-phenylbutyric acid], the melting point stood at 52 °C.

`O=C1C(=O)c2ccccc2-c2ccccc21` [9,10-phenanthrenequinone] yielded a melting point of 210 °C.

`CC(C)NCC(O)COc1cccc2ccccc12` (stereo not given) [Propranolol]: the melting point is 164 °C.

In turn, `Nc1ccc(C(=O)O)cc1` [4-Aminobenzoic Acid] had a melting point of 188 °C.

The compound `O=C(O)c1ccc(C(=O)OC(=O)c2ccc(C(=O)O)cc2C(=O)O)c(C(=O)O)c1` [4,4'-(Oxydicarbonyl)diisophthalic acid] returned a melting point of 165 °C.

As to `COC(C)=O` [Methyl acetate], the melting point was -98 °C.

Compound `OCC(CO)(CO)CO` [pentaerythritol] registered a melting point of 262 °C.

As for `C1CNCCN1` [piperazine, anhydrous], the melting point was 110 °C.

`O=C2c1ccccc1S(=O)(=O)N(C)C/2=C(O)Nc3ccccn3` [Piroxicam] returned a melting point of 199 °C.

Consider `CC(C)[C@H](N)C(=O)O` [L-valine], for which the melting point was found to be 315 °C.

`O=S(=O)(Cl)c1ccc(F)cc1` [4-fluorobenzenesulfonyl chloride] displayed a melting point of 37 °C.

`CCCCOC(=O)c1ccc(O)cc1` [butylparaben]: the melting point is 68.5 °C (2×) and 69 °C.

`O=[N+]([O-])c1ccccc1O` [nitrophenol] registered a melting point of 45 °C.

As for `Cc1ccc(C(=O)Cl)cc1` [p-toluoyl chloride], the melting point is -2 °C.

In turn, `CC(C)(C#N)c1cc(Cn2cncn2)cc(C(C)(C)C#N)c1` [Anastrozole] displayed a melting point of 130 °C.

`OB(O)c1cc(Cl)cc(Cl)c1Cl` [2,3,5-trichlorobenzeneboronic acid] returned a melting point of 245 °C.
